Assay results taken from patent US20240207414A1, “DISULFIDE-BASED PRODRUG COMPOUND” (Ludwig-Maximilians-Universitat Munchen, priority 2021, published 2024).

Molecular target: T1, glutathione reductase (GR) (Homo sapiens, UniProt P00390)
T1 sequence (P00390 44-522): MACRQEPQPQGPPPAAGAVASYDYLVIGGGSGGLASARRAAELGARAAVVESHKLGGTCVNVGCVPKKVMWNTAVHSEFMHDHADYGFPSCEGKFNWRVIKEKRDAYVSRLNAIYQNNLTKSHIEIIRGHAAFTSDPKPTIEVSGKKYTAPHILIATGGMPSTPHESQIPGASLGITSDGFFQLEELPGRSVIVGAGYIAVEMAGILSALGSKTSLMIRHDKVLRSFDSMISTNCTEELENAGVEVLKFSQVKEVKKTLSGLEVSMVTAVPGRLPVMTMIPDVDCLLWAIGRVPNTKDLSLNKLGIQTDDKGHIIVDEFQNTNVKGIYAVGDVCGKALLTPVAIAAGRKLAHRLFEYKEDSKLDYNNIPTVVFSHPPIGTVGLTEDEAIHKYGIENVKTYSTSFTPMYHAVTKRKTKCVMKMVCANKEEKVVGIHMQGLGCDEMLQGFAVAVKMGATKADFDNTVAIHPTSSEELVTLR
Experiment: Enzymatic activation assay: GR
Assay type: biochemical
Settings: NADPH/GR
From the text: This assay (see FIG. 2) examined the resistance of disulfide-based reduction-triggered compounds to the major cellular enzymatic systems that maintain redox homeostasis and are capable of reducing disulfides, evaluated in a cell-free assay, to see if these compounds can be useful for selective enzyme-triggered release.
Assay conditions: A black 96-well plate with black bottom was charged with solutions of fluorophore-releasing reduction-triggered probes that are compounds of the invention (P1, P2) or that are not compounds of the invention and reveal the performance of prior art systems (X19) (50 μL; 40 μM in aq. TE buffer (pH 7.4) and 4 μL DMSO). […]
Data Representation: (F(t)-F^NADPH(t)) is the fluorescence intensity of the test solution at time t, from which is subtracted a background fluorescence level also at time t from a solution with NADPH (which itself is fluorescent, and is present in 10-fold higher concentration than the probe) and with the same protein mixture but without the probe. F^max(t) is the maximum possible fluorescence intensity value at time t, determined by incubation with TCEP (100 μM)) similarly as for the chemical reductant assay. (F(t)−F^NADPH(t))/F^max(t) thus gives the timecourse of fluorescence signal, as a fraction of the maximum possible fluorescence signal. […]

O=C(Oc1ccc(Cl)cc1-c1nc2ccc(Cl)cc2c(=O)[nH]1)N1CCC[C@@H]2CSSC[C@H]21 (racemic) [Compound P1, 4-chloro-2-(6-chloro-4-oxo-3,4-dihydroquinazolin-2-yl)phenyl-(trans)-hexahydro-[1,2]dithiino[4,5-b]pyridine-1(2H)-carboxylate]
cargo release / processing by oxidoreductase GR: resist

O=C(Oc1ccc(Cl)cc1-c1nc2ccc(Cl)cc2c(=O)[nH]1)N1CCC[C@@H]2CSSC[C@@H]21 (racemic) [Compound P2, 4-chloro-2-(6-chloro-4-oxo-3,4-dihydroquinazolin-2-yl)phenyl-(cis)-hexahydro-[1,2]dithiino[4,5-b]pyridine-1(2H)-carboxylate]
cargo release / processing by oxidoreductase GR: resist
